From the supplement of paper PMC4862054
Values belong to the compound of their own block, whether it stands above or below them.

Tests used:
Settings in all cases: 72 h
MFM-223 [1] = system: MFM-223
Protocol: (§1)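 Drug sensitivity and resistance testing (DSRT) of breast cancer cell lines in 384-well plates, 5 concentrations in 10-fold dilutions over a compound-specific 10,000-fold range. After 72 h, cytotoxicity was read by CellTox Green fluorescence and viability by CellTiter-Glo luminescence (multiplexed), normalised to DMSO and benzethonium chloride controls. EC50 is the inflection point of the fitted dose-response curve (bottom asymptote free, so it can be relative for partial curves) and is censored at the highest tested concentration. Rows with DSS 0 (no meaningful response) were excluded.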

MCF-10A [2] = system: MCF-10A
Protocol: as §1

MDA-MB-231 [3] = system: MDA-MB-231
Protocol: as §1

CAL-120 [4] = system: CAL-120
Protocol: as §1

CAL-85-1 [5] = system: CAL-85-1
Protocol: as §1

CAL-51 [6] = system: CAL-51
Protocol: as §1

Hs578T [7] = system: Hs578T
Protocol: as §1

HDQ-P1 [8] = system: HDQ-P1
Outline: (§2)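 Viability of breast cancer cell lines was measured with CellTiter-Blue after 72 h of incubation on compound-loaded 384-well plates. Cells were seeded in 20 µl onto compound dissolved in 5 µl medium, and 2.5 µl reagent was added for 2 h at 37 °C before reading at 560/590 nm. EC50 was fitted from percent-inhibition dose-response data censored at the highest concentration, normalised per plate to vehicle and a positive kill control, with zero drug sensitivity score rows dropped.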

MDA-MB-453 [9] = system: MDA-MB-453
Outline: as §2

CAL-85-1 [10] = system: CAL-85-1; remark: listed apart in the source
Outline: as §2

CAL-51 [11] = system: CAL-51; remark: listed apart in the source
Outline: as §2

DU-4475 [12] = system: DU-4475
Outline: as §2

CAL-148 [13] = system: CAL-148
Outline: as §2

MFM-223 [14] = system: MFM-223; remark: listed apart in the source
Outline: as §2

SK-BR-3 [15] = system: SK-BR-3
Outline: as §2

MDA-MB-231 [16] = system: MDA-MB-231; remark: listed apart in the source
Outline: as §2

MDA-MB-468 [17] = system: MDA-MB-468
Outline: as §2

CAL-120 [18] = system: CAL-120; remark: listed apart in the source
Outline: as §2

BT-549 [19] = system: BT-549
Outline: as §2

MDA-MB-436 [20] = system: MDA-MB-436
Outline: as §2

Hs578T [21] = system: Hs578T; remark: listed apart in the source
Outline: as §2

HCC1937 [22] = system: HCC1937
Outline: as §2

HCC1143 [23] = system: HCC1143
Outline: as §2

MFM-223 [24] = system: MFM-223; remark: listed apart in the source
Outline: (§3)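 In this assay, breast cancer cell lines spent 72 h with compound at 5 concentrations in 10-fold steps over a compound-specific 10,000-fold range. The first readout was cell death by CellTox Green fluorescence, and the second was viability by CellTiter-Glo luminescence, each normalised per plate to 0.1 % DMSO and a positive kill control. EC50 came from the dose-response curves, censored at the top concentration.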

SK-BR-3 [25] = system: SK-BR-3; remark: listed apart in the source
Outline: as §3

BT-474 [26] = system: BT-474
Outline: as §3

MCF-10A [27] = system: MCF-10A; remark: listed apart in the source
Outline: as §3

HDQ-P1 [28] = system: HDQ-P1; remark: listed apart in the source
Outline: as §3

MDA-MB-231 [29] = system: MDA-MB-231; remark: listed apart in the source
Outline: as §3

MDA-MB-468 [30] = system: MDA-MB-468; remark: listed apart in the source
Outline: as §3

MDA-MB-453 [31] = system: MDA-MB-453; remark: listed apart in the source
Outline: as §3

CAL-120 [32] = system: CAL-120; remark: listed apart in the source
Outline: as §3

HCC1599 [33] = system: HCC1599
Outline: as §3

BT-549 [34] = system: BT-549; remark: listed apart in the source
Outline: as §3

CAL-85-1 [35] = system: CAL-85-1; remark: listed apart in the source
Outline: as §3

MDA-MB-436 [36] = system: MDA-MB-436; remark: listed apart in the source
Outline: as §3

CAL-51 [37] = system: CAL-51; remark: listed apart in the source
Outline: as §3

DU-4475 [38] = system: DU-4475; remark: listed apart in the source
Outline: as §3

Hs578T [39] = system: Hs578T; remark: listed apart in the source
Outline: as §3

CAL-148 [40] = system: CAL-148; remark: listed apart in the source
Outline: as §3

HCC1143 [41] = system: HCC1143; remark: listed apart in the source
Outline: as §3

HCC1599 [42] = system: HCC1599; remark: listed apart in the source
Outline: as §2

MDA-MB-436 [43] = system: MDA-MB-436; remark: listed apart in the source
Protocol: as §1

CAL-148 [44] = system: CAL-148; remark: listed apart in the source
Protocol: as §1

BT-474 [45] = system: BT-474; remark: listed apart in the source
Outline: as §2

HCC1937 [46] = system: HCC1937; remark: listed apart in the source
Outline: as §3

Compound: CC(=O)Nc1cccc(-n2c(=O)n(C3CC3)c(=O)c3c(Nc4ccc(I)cc4F)n(C)c(=O)c(C)c32)c1
EC50, CellTiter-Blue viability (HDQ-P1 [8]): 0.00417 µM
EC50, CellTiter-Blue viability (MDA-MB-453 [9]): 0.0202 µM
EC50, CellTiter-Blue viability (CAL-85-1 [10]): 0.0194 µM
EC50, CellTiter-Blue viability (CAL-51 [11]): 0.00994 µM
EC50, CellTiter-Blue viability (DU-4475 [12]): 0.00091 µM
EC50, CellTiter-Blue viability (MDA-MB-231 [16]): 0.0018 µM
EC50, CellTiter-Blue viability (MDA-MB-468 [17]): 0.0357 µM
EC50, CellTiter-Blue viability (CAL-120 [18]): 0.0206 µM
EC50, CellTiter-Blue viability (HCC1599 [42]): 0.0315 µM
EC50, CellTiter-Blue viability (HCC1143 [23]): 0.00292 µM

Compound: O=C(O)CCCCC(CCSCc1ccccc1)SCc1ccccc1 (stereo unspecified) [CPI-613]
EC50, CellTox Green (CAL-85-1 [5]): > 10 µM

Compound: Cc1cnc(NC(=O)Nc2cc(Br)c(C)cc2OC[C@@H]2CNCCO2)cn1
EC50, CellTiter-Blue viability (SK-BR-3 [15]): 0.715 µM
EC50, CellTiter-Blue viability (HCC1599 [42]): 0.221 µM
EC50, CellTiter-Blue viability (MDA-MB-436 [20]): 0.0987 µM
EC50, CellTiter-Blue viability (Hs578T [21]): 0.745 µM
EC50, CellTiter-Blue viability (HCC1937 [22]): 0.121 µM

Continued, in another order:

EC50, CellTiter-Blue viability (MDA-MB-453 [9]): 0.00209 µM
EC50, CellTiter-Blue viability (SK-BR-3 [15]): 0.00263 µM
EC50, CellTiter-Blue viability (MDA-MB-231 [16]): 0.00571 µM
EC50, CellTiter-Blue viability (MDA-MB-468 [17]): 0.00348 µM
EC50, CellTiter-Blue viability (BT-549 [19]): 0.00156 µM
EC50, CellTiter-Blue viability (MDA-MB-436 [20]): 0.00372 µM
EC50, CellTiter-Blue viability (HCC1937 [22]): 0.00379 µM
EC50, CellTiter-Blue viability (HCC1143 [23]): 0.00632 µM
EC50, CellTiter-Glo (SK-BR-3 [25]): 0.00239 µM
EC50, CellTiter-Glo (BT-474 [26]): 0.00644 µM
EC50, CellTiter-Glo (MDA-MB-231 [29]): 0.00275 µM
EC50, CellTiter-Glo (MDA-MB-468 [30]): 0.00204 µM
EC50, CellTiter-Glo (MDA-MB-453 [31]): 0.00255 µM
EC50, CellTiter-Glo (HCC1599 [33]): 0.0372 µM
EC50, CellTiter-Glo (BT-549 [34]): 0.00482 µM
EC50, CellTiter-Glo (MDA-MB-436 [36]): 0.00244 µM
EC50, CellTiter-Glo (HCC1143 [41]): 0.00601 µM
Compound: CC[C@@H]1C(=O)N(C)c2cnc(Nc3ccc(C(=O)NC4CCN(C)CC4)cc3OC)nc2N1C1CCCC1 [BI 2536]
EC50, CellTox Green (MFM-223 [1]): 0.00241 µM
EC50, CellTox Green (MCF-10A [2]): 0.00265 µM
EC50, CellTox Green (MDA-MB-231 [3]): 0.00226 µM
EC50, CellTox Green (CAL-120 [4]): 0.12 µM
EC50, CellTox Green (CAL-85-1 [5]): 0.0241 µM
EC50, CellTox Green (CAL-51 [6]): 0.00572 µM
EC50, CellTox Green (Hs578T [7]): 0.419 µM
EC50, CellTiter-Blue viability (HDQ-P1 [8]): > 1 µM
EC50, CellTiter-Blue viability (CAL-85-1 [10]): 0.00285 µM
EC50, CellTiter-Blue viability (CAL-51 [11]): 0.0125 µM
EC50, CellTiter-Blue viability (DU-4475 [12]): 0.00601 µM
EC50, CellTiter-Blue viability (CAL-148 [13]): 0.00474 µM
EC50, CellTiter-Blue viability (MFM-223 [14]): 0.00157 µM
EC50, CellTiter-Blue viability (CAL-120 [18]): 0.00352 µM
EC50, CellTiter-Blue viability (Hs578T [21]): 0.0105 µM
EC50, CellTiter-Glo (MFM-223 [24]): 0.00227 µM
EC50, CellTiter-Glo (MCF-10A [27]): 0.034 µM
EC50, CellTiter-Glo (HDQ-P1 [28]): 0.0214 µM
EC50, CellTiter-Glo (CAL-120 [32]): 0.0059 µM
EC50, CellTiter-Glo (CAL-85-1 [35]): 0.00242 µM
EC50, CellTiter-Glo (CAL-51 [37]): 0.0109 µM
EC50, CellTiter-Glo (DU-4475 [38]): 0.0102 µM
EC50, CellTiter-Glo (Hs578T [39]): 0.0316 µM
EC50, CellTiter-Glo (CAL-148 [40]): 0.00314 µM

EC50, CellTiter-Blue viability (MDA-MB-453 [9]): 0.83 µM
EC50, CellTiter-Blue viability (SK-BR-3 [15]): 0.17 µM
EC50, CellTiter-Blue viability (BT-474 [45]): 0.916 µM
EC50, CellTiter-Blue viability (MDA-MB-231 [16]): 0.721 µM
EC50, CellTiter-Blue viability (MDA-MB-468 [17]): 0.369 µM
EC50, CellTiter-Blue viability (HCC1599 [42]): 2.32 µM
EC50, CellTiter-Blue viability (BT-549 [19]): 1.09 µM
EC50, CellTiter-Blue viability (MDA-MB-436 [20]): 1.52 µM
EC50, CellTiter-Blue viability (HCC1937 [22]): 0.211 µM
EC50, CellTiter-Blue viability (HCC1143 [23]): 0.525 µM
EC50, CellTiter-Glo (SK-BR-3 [25]): 0.343 µM
EC50, CellTiter-Glo (BT-474 [26]): 2.64 µM
EC50, CellTiter-Glo (MDA-MB-231 [29]): 4.48 µM
EC50, CellTiter-Glo (MDA-MB-468 [30]): 0.29 µM
EC50, CellTiter-Glo (MDA-MB-453 [31]): 3.05 µM
EC50, CellTiter-Glo (HCC1599 [33]): 3.22 µM
EC50, CellTiter-Glo (BT-549 [34]): 0.794 µM
EC50, CellTiter-Glo (MDA-MB-436 [36]): 0.311 µM
EC50, CellTiter-Glo (HCC1937 [46]): 0.629 µM
EC50, CellTiter-Glo (HCC1143 [41]): 0.697 µM
Compound: CCCCC(=O)OCC(=O)[C@]1(O)Cc2c(O)c3c(c(O)c2[C@@H](O[C@H]2C[C@H](NC(=O)C(F)(F)F)[C@H](O)[C@H](C)O2)C1)C(=O)c1c(OC)cccc1C3=O [Valrubicin]
EC50, CellTox Green (MDA-MB-436 [43]): > 5 µM
EC50, CellTox Green (CAL-51 [6]): 0.0261 µM
EC50, CellTox Green (CAL-148 [44]): 0.0466 µM
EC50, CellTiter-Blue viability (HDQ-P1 [8]): 0.236 µM
EC50, CellTiter-Blue viability (CAL-85-1 [10]): 1.17 µM
EC50, CellTiter-Blue viability (CAL-51 [11]): 0.148 µM
EC50, CellTiter-Blue viability (DU-4475 [12]): 0.0655 µM
EC50, CellTiter-Blue viability (CAL-148 [13]): 0.123 µM
EC50, CellTiter-Blue viability (MFM-223 [14]): 2.81 µM
EC50, CellTiter-Blue viability (CAL-120 [18]): 0.281 µM
EC50, CellTiter-Blue viability (Hs578T [21]): 1.23 µM
EC50, CellTiter-Glo (MFM-223 [24]): 4.32 µM
EC50, CellTiter-Glo (MCF-10A [27]): 0.746 µM
EC50, CellTiter-Glo (HDQ-P1 [28]): 0.661 µM
EC50, CellTiter-Glo (CAL-85-1 [35]): 1.34 µM
EC50, CellTiter-Glo (CAL-51 [37]): 0.162 µM
EC50, CellTiter-Glo (DU-4475 [38]): 0.462 µM
EC50, CellTiter-Glo (Hs578T [39]): 0.944 µM
EC50, CellTiter-Glo (CAL-148 [40]): 0.322 µM
